The text below walks through data of PMC10974167 (Toxins, 2024).

The format of test [1] is binding. The settings on record: pH 8.
Details of test [2]: method as in PMID 22488789. To be noted: cited from earlier work.

For the substance cholera toxin B-subunit [Wild-type], in test [1], the equilibrium dissociation constant (Kd) (as a rule, the equilibrium constant for the complex coming apart) was 43 ± 8 nM. Also, in test [2], the “Lewis-y glycan binding (result in words)” value is on record as “very low affinity”.
